Measured values taken from patent US10660877B2 (BRISTOL-MYERS SQUIBB COMPANY, priority 2016, dated 2020).
Read-outs that look alike come from different tables or passages of the source.

Legend:
[1] = molecular target: human TLR7 (Homo sapiens (Human), UniProt Q9NYK1); assay: TLR7 inhibition reporter assay (HEK-Blue cells, SEAP reporter, gardiquimod stimulation); type: cell-based
[2] = molecular target: human TLR8 (Homo sapiens (Human), UniProt Q9NR97); assay: TLR8 inhibition reporter assay (HEK-Blue cells, SEAP reporter, R848 stimulation);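 further: compounds tested from 0.05 nM to 50 µM, 22 h at 37 °C, SEAP measured with HEK-Blue Detection, inhibition relative to agonist plus DMSO versus a known inhibitor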
Sequence of human TLR8 (Q9NR97 27-1041): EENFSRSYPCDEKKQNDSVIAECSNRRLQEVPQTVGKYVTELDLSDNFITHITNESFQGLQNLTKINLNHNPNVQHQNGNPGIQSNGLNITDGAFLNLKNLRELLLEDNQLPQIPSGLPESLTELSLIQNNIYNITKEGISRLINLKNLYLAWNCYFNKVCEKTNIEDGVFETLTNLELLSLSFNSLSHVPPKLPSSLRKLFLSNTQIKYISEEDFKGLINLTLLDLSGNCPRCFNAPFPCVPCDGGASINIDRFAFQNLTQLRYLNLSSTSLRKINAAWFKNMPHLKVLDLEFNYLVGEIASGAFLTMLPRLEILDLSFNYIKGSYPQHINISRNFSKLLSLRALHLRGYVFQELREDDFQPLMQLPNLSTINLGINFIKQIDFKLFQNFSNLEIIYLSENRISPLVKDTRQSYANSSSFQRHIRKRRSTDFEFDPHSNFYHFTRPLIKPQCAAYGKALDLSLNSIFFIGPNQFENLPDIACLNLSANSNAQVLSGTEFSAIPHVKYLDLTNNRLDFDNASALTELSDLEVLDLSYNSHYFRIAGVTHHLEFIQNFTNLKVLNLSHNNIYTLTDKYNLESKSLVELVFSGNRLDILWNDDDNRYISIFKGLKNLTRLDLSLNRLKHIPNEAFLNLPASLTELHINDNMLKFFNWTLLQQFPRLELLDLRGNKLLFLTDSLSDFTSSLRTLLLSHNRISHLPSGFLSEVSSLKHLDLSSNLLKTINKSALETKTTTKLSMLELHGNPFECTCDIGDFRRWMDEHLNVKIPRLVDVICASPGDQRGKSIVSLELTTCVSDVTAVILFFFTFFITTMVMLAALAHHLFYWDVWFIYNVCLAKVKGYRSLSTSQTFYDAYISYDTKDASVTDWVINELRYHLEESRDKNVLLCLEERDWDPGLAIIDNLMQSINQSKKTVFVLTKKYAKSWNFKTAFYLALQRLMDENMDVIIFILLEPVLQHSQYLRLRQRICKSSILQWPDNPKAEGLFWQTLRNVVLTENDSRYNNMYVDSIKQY

[3] = molecular target: human TLR9 (Homo sapiens (Human), UniProt Q9NR96); assay: TLR9 inhibition reporter assay (HEK-Blue cells, SEAP reporter, ODN2006 stimulation);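 further: compounds tested over 0.05 nM to 50 µM, 22 h incubation, inhibition taken as SEAP signal drop from agonist plus DMSO wells toward a known inhibitor control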
Sequence of human TLR9 (Q9NR96 26-1032): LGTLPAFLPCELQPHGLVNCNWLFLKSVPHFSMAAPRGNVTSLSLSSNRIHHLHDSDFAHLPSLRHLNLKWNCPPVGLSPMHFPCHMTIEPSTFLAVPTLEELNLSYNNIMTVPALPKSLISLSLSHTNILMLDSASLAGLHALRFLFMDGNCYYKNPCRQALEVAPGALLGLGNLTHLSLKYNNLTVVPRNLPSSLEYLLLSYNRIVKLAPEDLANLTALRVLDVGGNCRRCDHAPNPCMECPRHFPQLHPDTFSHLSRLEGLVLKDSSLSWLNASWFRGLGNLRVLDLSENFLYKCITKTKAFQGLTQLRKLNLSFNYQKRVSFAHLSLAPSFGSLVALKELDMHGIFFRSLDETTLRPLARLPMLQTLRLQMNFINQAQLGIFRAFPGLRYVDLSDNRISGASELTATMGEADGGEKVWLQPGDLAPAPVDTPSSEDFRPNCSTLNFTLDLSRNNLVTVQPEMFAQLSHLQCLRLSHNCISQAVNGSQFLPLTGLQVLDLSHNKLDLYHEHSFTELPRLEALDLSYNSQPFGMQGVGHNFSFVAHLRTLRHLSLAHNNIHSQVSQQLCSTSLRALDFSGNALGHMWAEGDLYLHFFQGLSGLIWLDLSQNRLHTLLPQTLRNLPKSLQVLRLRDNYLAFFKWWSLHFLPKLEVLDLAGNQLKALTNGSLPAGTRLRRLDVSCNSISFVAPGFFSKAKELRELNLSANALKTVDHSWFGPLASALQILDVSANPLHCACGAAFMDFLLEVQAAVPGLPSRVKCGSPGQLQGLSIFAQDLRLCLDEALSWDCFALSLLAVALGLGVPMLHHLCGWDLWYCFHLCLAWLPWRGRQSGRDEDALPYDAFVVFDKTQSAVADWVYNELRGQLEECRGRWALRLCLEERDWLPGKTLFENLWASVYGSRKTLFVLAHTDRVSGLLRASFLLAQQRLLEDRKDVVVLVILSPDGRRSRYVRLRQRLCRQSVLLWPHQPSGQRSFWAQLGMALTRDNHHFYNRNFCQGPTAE

[4] = HEK-Blue cells overexpressing human TLR7, gardiquimod 7.5 μM
[5] = read-out: TLR8 IC50, HEK-Blue cells overexpressing human TLR8, R848 15.9 μM
[6] = read-out: TLR9 IC50, HEK-Blue cells overexpressing human TLR9, ODN2006 5 nM
[7] = HEK-Blue cells, gardiquimod 7.5 μM
[8] = read-out: TLR8 IC50, HEK-Blue cells, R848 15.9 μM
[9] = read-out: TLR9 IC50, HEK-Blue cells, ODN2006 5 nM

Sequence of human TLR7 (Q9NYK1 27-1049): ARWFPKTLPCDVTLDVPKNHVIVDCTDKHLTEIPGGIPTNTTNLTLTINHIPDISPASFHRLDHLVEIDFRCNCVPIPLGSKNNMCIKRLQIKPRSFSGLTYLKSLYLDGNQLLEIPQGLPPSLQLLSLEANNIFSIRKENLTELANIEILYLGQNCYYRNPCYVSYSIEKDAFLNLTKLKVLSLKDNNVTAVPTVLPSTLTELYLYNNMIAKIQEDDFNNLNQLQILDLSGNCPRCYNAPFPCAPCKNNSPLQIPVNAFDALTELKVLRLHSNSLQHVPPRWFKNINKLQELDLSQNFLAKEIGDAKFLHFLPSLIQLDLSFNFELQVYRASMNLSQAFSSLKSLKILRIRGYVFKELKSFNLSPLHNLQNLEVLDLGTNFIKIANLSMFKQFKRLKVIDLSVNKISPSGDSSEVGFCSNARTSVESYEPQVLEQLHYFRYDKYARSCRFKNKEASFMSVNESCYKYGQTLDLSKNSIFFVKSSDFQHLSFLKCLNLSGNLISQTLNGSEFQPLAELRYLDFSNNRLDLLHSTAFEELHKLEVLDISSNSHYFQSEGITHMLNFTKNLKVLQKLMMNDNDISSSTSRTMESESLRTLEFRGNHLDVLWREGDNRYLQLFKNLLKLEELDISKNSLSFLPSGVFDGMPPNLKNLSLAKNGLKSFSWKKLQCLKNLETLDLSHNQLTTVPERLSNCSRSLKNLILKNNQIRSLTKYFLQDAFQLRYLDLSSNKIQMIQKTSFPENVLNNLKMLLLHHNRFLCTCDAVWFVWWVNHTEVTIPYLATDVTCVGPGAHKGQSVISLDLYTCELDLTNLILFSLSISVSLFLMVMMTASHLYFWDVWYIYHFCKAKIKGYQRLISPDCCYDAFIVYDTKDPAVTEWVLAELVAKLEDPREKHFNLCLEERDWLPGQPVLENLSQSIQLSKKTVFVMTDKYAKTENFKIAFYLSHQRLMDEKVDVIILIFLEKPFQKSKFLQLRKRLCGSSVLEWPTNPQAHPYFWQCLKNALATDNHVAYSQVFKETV

| SMILES | IC50 [1, 4] [µM] | IC50 [2, 5] [µM] | IC50 [3, 6] [µM] | IC50 [1, 7] [µM] | IC50 [2, 8] [µM] | IC50 [3, 9] [µM] | IC50 ([2]; TLR8 IC50, HEK-Blue cells overexpressing human TLR8, R848 15.9 μM) [µM] | IC50 ([3]; TLR9 IC50, HEK-Blue cells overexpressing human TLR9, ODN2006 5 nM) [µM] |
| --- | --- | --- | --- | --- | --- | --- | --- | --- |
| Cc1cc(-c2[nH]c3ccc(C4CCN(C5COC5)CC4)cc3c2C(C)C)c(C)cn1 [Example 722, 2-(2,5-dimethylpyridin-4-yl)-3-isopropyl-5-(1-(oxetan-3-yl)piperidin-4-yl)-1H-indole] | 0.0244 | 0.0063 | 5.89 | – | – | – | – | – |
| Cc1cc(-c2[nH]c3ccc(C4CCN(CC(=O)NCCC(C)O)CC4)cc3c2C(C)C)cc(C)n1 (stereo not drawn) [Example 262, 2-(4-(2-(2,6-dimethylpyridin-4-yl)-3-isopropyl-1H-indol-5-yl)piperidin-1-yl)-N-(3-hydroxybutyl)acetamide] | 0.002 | 0.006 | 0.715 | – | – | – | – | – |
| CCc1c(-c2ccnc(C)c2)[nH]c2ccc(C3CCN(CC(O)CN(C)C(C)C)CC3)cc12 (stereo not drawn) [Example 877, 1-(4-(3-ethyl-2-(2-methylpyridin-4-yl)-1H-indol-5-yl)piperidin-1-yl)-3-(isopropyl(methyl)amino)propan-2-ol] | – | – | – | 0.0306 | 0.0029 | 0.016 | – | – |
| CCc1c(-c2ccnc(OC)c2)[nH]c2ccc(C3CCNCC3)cc12 [Example 61, 3-ethyl-2-(2-methoxypyridin-4-yl)-5-(piperidin-4-yl)-1H-indole] | 0.207 | 0.0588 | 2.37 | – | – | – | – | – |
| Cc1cc(-c2[nH]c3ccc(C4CCNCC4)cc3c2C(C)C)c(N)c(C)n1 [Example 29, 4-(3-isopropyl-5-(piperidin-4-yl)-1H-indol-2-yl)-2,6-dimethylpyridin-3-amine] | 0.0021 | 0.0188 | 0.264 | – | – | – | – | – |
| Cc1cc(-c2[nH]c3ccc(C4CCN(CC5CCCC5)CC4)cc3c2C(C)C)cc(C)n1 [Example 468, 5-(1-(cyclopentylmethyl)piperidin-4-yl)-2-(2,6-dimethylpyridin-4-yl)-3-isopropyl-1H-indole] | 0.0178 | 0.0355 | 1.34 | – | – | – | – | – |
| Cc1cc(-c2[nH]c3ccc(C4CCN(C(=O)CN5CCN(CCO)CC5)CC4)cc3c2C(C)C)cc(C)n1 [Example 171, 1-(4-(2-(2,6-dimethylpyridin-4-yl)-3-isopropyl-1H-indol-5-yl)piperidin-1-yl)-2-(4-(2-hydroxyethyl)piperazin-1-yl)ethan-1-one] | 0.0026 | 0.0183 | 0.542 | – | – | – | – | – |
| Cc1cc(-c2[nH]c3ccc(C4CCN(CC(=O)N5CCC[C@@H]5CO)CC4)cc3c2C(C)C)cc(C)n1 [Example 302, (R)-2-(4-(2-(2,6-dimethylpyridin-4-yl)-3-isopropyl-1H-indol-5-yl)piperidin-1-yl)-1-(2-(hydroxymethyl)pyrrolidin-1-yl) ethan-1-one] | 0.0082 | 0.0631 | 1.26 | – | – | – | – | – |
| Cc1cc(-c2[nH]c3cc(F)c(C4CCN(Cc5ncn(C)n5)CC4)cc3c2C(C)C)cc(C)n1 [Example 832, 2-(2,6-dimethylpyridin-4-yl)-6-fluoro-3-isopropyl-5-(1-((1-methyl-1H-1,2,4-triazol-3-yl)methyl)piperidin-4-yl)-1H-indole] | – | – | – | 0.0062 | 0.0254 | 3.08 | – | – |
| Cc1cc(-c2[nH]c3ccc(C4CCN(C(=O)CN(C)C5CCCCC5)CC4)cc3c2C(C)C)cc(C)n1 [Example 384, 2-(cyclohexyl (methyl)amino)-1-(4-(2-(2,6-dimethylpyridin-4-yl)-3-isopropyl-1H-indol-5-yl)piperidin-1-yl)ethan-1-one] | 0.0144 | 0.057 | 0.63 | – | – | – | – | – |
| Cc1cc(-c2[nH]c3ccc(C4CCN(C(=O)Cn5ccccc5=O)CC4)cc3c2C(C)C)cc(C)n1 [Example 157, 1-(2-(4-(2-(2,6-dimethylpyridin-4-yl)-3-isopropyl-1H-indol-5-yl)piperidin-1-yl)-2-oxoethyl)pyridin-2(1H)-one] | 0.0165 | 0.0657 | 2.5 | – | – | – | – | – |
| CCc1c(-c2ccnc(N)c2)[nH]c2ccc([C@@H]3CCNC[C@H]3F)cc12 [491-B] | 0.526 | 0.0349 | 0.324 | – | – | – | – | – |
| CC(=O)N1CCC(c2ccc3[nH]c(-c4cc(C)nc(F)c4)c(C(C)C)c3c2)CC1 [Example 499, 1-(4-(2-(2-fluoro-6-methylpyridin-4-yl)-3-isopropyl-1H-indol-5-yl)piperidin-1-yl)ethan-1-one] | 3.69 | 10.7 | > 50 | – | – | – | – | – |
| Cc1cc(-c2[nH]c3ccc(C4CCN(C(=O)C5CC(=O)N(C)C5)CC4)cc3c2C(C)C)c(F)cn1 (stereo not drawn) [Example 583, 4-(4-(2-(5-fluoro-2-methylpyridin-4-yl)-3-isopropyl-1H-indol-5-yl)piperidine-1-carbonyl)-1-methylpyrrolidin-2-one] | 0.0156 | 0.0368 | > 50 | – | – | – | – | – |
| Cc1cc(-c2[nH]c3ccc(C4CCN(Cc5nnn[nH]5)CC4)cc3c2C(C)C)c(F)cn1 [Example 696, 5-(1-((1H-tetrazol-5-yl)methyl)piperidin-4-yl)-2-(5-fluoro-2-methylpyridin-4-yl)-3-isopropyl-1H-indole] | 0.408 | 0.104 | > 50 | – | – | – | – | – |
| Cc1cc(-c2[nH]c3ccc(C4CCN(C(=O)CN5CCCS5(=O)=O)CC4)cc3c2C(C)C)cc(C)n1 [Example 152, 1-(4-(2-(2,6-dimethylpyridin-4-yl)-3-isopropyl-1H-indol-5-yl)piperidin-1-yl)-2-(1,1-dioxidoisothiazolidin-2-yl)ethan-1-one] | 0.005 | 0.0498 | 30.4 | – | – | – | – | – |
| Cc1cc(-c2[nH]c3ccc(C4CCN(CC(=O)N(C)C(C)(C)C)CC4)cc3c2C(C)C)cc(C)n1 [Example 250, N-(tert-butyl)-2-(4-(2-(2,6-dimethylpyridin-4-yl)-3-isopropyl-1H-indol-5-yl)piperidin-1-yl)-N-methylacetamide] | 0.0117 | 0.0364 | 1.2 | – | – | – | – | – |
| COCCOCC(=O)N1CCC(c2ccc3[nH]c(-c4cc(C)nc(C)c4)c(C(C)C)c3c2)CC1 [Example 114, 1-(4-(2-(2,6-dimethylpyridin-4-yl)-3-isopropyl-1H-indol-5-yl)piperidin-1-yl)-2-(2-methoxyethoxy)ethan-1-one] | 0.0031 | 0.0825 | 47.2 | – | – | – | – | – |
| CC(C)c1c(-c2ccnc(N)c2)[nH]c2ccc(C3CCN(Cc4cnc[nH]4)CC3)cc12 [Example 817, 4-(5-(1-((1H-imidazol-5-yl)methyl)piperidin-4-yl)-3-isopropyl-1H-indol-2-yl)pyridin-2-amine] | – | – | – | 0.224 | 0.056 | 0.177 | – | – |
| Cc1cc(-c2[nH]c3ccc(C4CCN(Cc5cc(C)on5)CC4)cc3c2C(C)C)c(F)cn1 [Example 686, 3-((4-(2-(5-fluoro-2-methylpyridin-4-yl)-3-isopropyl-1H-indol-5-yl)piperidin-1-yl)methyl)-5-methylisoxazole] | 0.0352 | 0.0041 | 9.45 | – | – | – | – | – |
| Cc1cc(-c2[nH]c3ccc(C4CCN(CC(O)CO)CC4)cc3c2C(C)C)cc(C)n1 (stereo not drawn) [Example 854, 3-(4-(2-(2,6-dimethylpyridin-4-yl)-3-isopropyl-1H-indol-5-yl)piperidin-1-yl) propane-1,2-diol] | – | – | – | 0.001 | 0.0018 | 0.159 | – | – |
| COC1CN(C(=O)CN2CCC(c3ccc4[nH]c(-c5cc(C)nc(C)c5)c(C(C)C)c4c3)CC2)C1 [Example 226, 2-(4-(2-(2,6-dimethylpyridin-4-yl)-3-isopropyl-1H-indol-5-yl)piperidin-1-yl)-1-(3-methoxyazetidin-1-yl)ethan-1-one] | 0.0054 | 0.0124 | 0.759 | – | – | – | – | – |
| CCc1c(-c2cc(Cl)ncc2OC)[nH]c2ccc(C3CCN(C4CCN(CC(C)C)CC4)CC3)cc12 [Example 763, 2-(2-chloro-5-methoxypyridin-4-yl)-3-ethyl-5-(1′-isobutyl-[1,4′-bipiperidin]-4-yl)-1H-indole] | 4.95 | 0.514 | 1.9 | – | – | – | – | – |
| Cc1cc(-c2[nH]c3ccc(C4CCN(CC(=O)N5CC6(COC6)C5)CC4)cc3c2C(C)C)cc(C)n1 [Example 256, 2-(4-(2-(2,6-dimethylpyridin-4-yl)-3-isopropyl-1H-indol-5-yl)piperidin-1-yl)-1-(2-oxa-6-azaspiro[3.3]heptan-6-yl)ethan-1-one] | 0.0044 | 0.0092 | 0.403 | – | – | – | – | – |
| Cc1cc(-c2[nH]c3ccc(C4CCN(CC(=O)N5CCC(F)(F)C5)CC4)cc3c2C(C)C)cc(C)n1 [Example 216, 1-(3,3-difluoropyrrolidin-1-yl)-2-(4-(2-(2,6-dimethylpyridin-4-yl)-3-isopropyl-1H-indol-5-yl)piperidin-1-yl)ethan-1-one] | 0.0028 | – | – | – | – | – | 0.007 | 0.315 |
| Cc1cc(-c2[nH]c3ccc(C4CCN(C(=O)C5(N)CC5)CC4)cc3c2C(C)C)cc(C)n1 [Example 195, (1-aminocyclopropyl)(4-(2-(2,6-dimethylpyridin-4-yl)-3-isopropyl-1H-indol-5-yl)piperidin-1-yl)methanone] | 0.006 | 0.054 | 5.27 | – | – | – | – | – |
| Cc1cc(-c2[nH]c3ccc(C4CCN(CC(C)(C)O)CC4)cc3c2C2CC2)cc(C)n1 [Example 668, 1-(4-(3-cyclopropyl-2-(2,6-dimethylpyridin-4-yl)-1H-indol-5-yl)piperidin-1-yl)-2-methylpropan-2-ol] | 0.0143 | 0.0076 | 0.149 | – | – | – | – | – |
| Cc1cc(-c2[nH]c3ccc(C4CCN(Cc5ncco5)CC4)cc3c2C(C)C)c(F)cn1 [Example 700, 2-((4-(2-(5-fluoro-2-methylpyridin-4-yl)-3-isopropyl-1H-indol-5-yl)piperidin-1-yl)methyl)oxazole] | 0.0558 | 0.016 | > 50 | – | – | – | – | – |
